Assay: xn = mol fraction of the nth substance listed
Details: Liquid

CCCCCCCC [octane] + CCO
Details | mass density [kg/m3] | viscosity [mPa·s]
273.15 K, x2 = 0.095 | 713.3 | 0.6185
273.15 K, x2 = 0.192 | 715.9 | 0.6401
273.15 K, x2 = 0.294 | 719.6 | 0.698
273.15 K, x2 = 0.399 | 725.5 | 0.7603
273.15 K, x2 = 0.496 | 732.2 | 0.8635
273.15 K, x2 = 0.602 | 740.1 | 0.9516
273.15 K, x2 = 0.691 | 752 | 1.103
273.15 K, x2 = 0.807 | 763.9 | 1.262
273.15 K, x2 = 0.911 | 781 | 1.459
275.65 K, x2 = 0.095 | 709.2 | 0.6003
275.65 K, x2 = 0.192 | 713.9 | 0.6206
275.65 K, x2 = 0.294 | 719.5 | 0.6743
275.65 K, x2 = 0.399 | 723.4 | 0.7329
275.65 K, x2 = 0.496 | 731.5 | 0.828
275.65 K, x2 = 0.602 | 738 | 0.9122
275.65 K, x2 = 0.691 | 749.9 | 1.054
275.65 K, x2 = 0.807 | 761.7 | 1.203
275.65 K, x2 = 0.911 | 778.9 | 1.389
278.15 K, x2 = 0.095 | 707.2 | 0.583
278.15 K, x2 = 0.192 | 711.8 | 0.6019
278.15 K, x2 = 0.294 | 717.2 | 0.652
278.15 K, x2 = 0.399 | 721.3 | 0.7069
278.15 K, x2 = 0.496 | 729.4 | 0.7951
278.15 K, x2 = 0.602 | 735.9 | 0.8751
278.15 K, x2 = 0.691 | 747.8 | 1.008
278.15 K, x2 = 0.807 | 759.7 | 1.148
278.15 K, x2 = 0.911 | 776.8 | 1.323
280.65 K, x2 = 0.095 | 705.1 | 0.5664
280.65 K, x2 = 0.192 | 708.5 | 0.5841
280.65 K, x2 = 0.294 | 714.8 | 0.6308
280.65 K, x2 = 0.399 | 719.2 | 0.6822
280.65 K, x2 = 0.496 | 725.2 | 0.7643
280.65 K, x2 = 0.602 | 733.8 | 0.8399
280.65 K, x2 = 0.691 | 745.7 | 0.9555
280.65 K, x2 = 0.807 | 757.6 | 1.097
280.65 K, x2 = 0.911 | 774.7 | 1.26
283.15 K, x2 = 0.095 | 703 | 0.5505
283.15 K, x2 = 0.192 | 706.4 | 0.5669
283.15 K, x2 = 0.294 | 712.5 | 0.6105
283.15 K, x2 = 0.399 | 717.1 | 0.6587
283.15 K, x2 = 0.496 | 723.1 | 0.7348
283.15 K, x2 = 0.602 | 731.7 | 0.8067
283.15 K, x2 = 0.691 | 743.6 | 0.9146
283.15 K, x2 = 0.807 | 755.4 | 1.047
283.15 K, x2 = 0.911 | 772.6 | 1.202
285.65 K, x2 = 0.095 | 701 | 0.5351
285.65 K, x2 = 0.192 | 704.3 | 0.5505
285.65 K, x2 = 0.294 | 710.2 | 0.5906
285.65 K, x2 = 0.399 | 715 | 0.6363
285.65 K, x2 = 0.496 | 723.1 | 0.707
285.65 K, x2 = 0.602 | 729.6 | 0.7758
285.65 K, x2 = 0.691 | 741.5 | 0.8763
285.65 K, x2 = 0.807 | 753.3 | 1.002
285.65 K, x2 = 0.911 | 770.5 | 1.147
288.15 K, x2 = 0.095 | 698.9 | 0.5207
288.15 K, x2 = 0.192 | 702.2 | 0.5347
288.15 K, x2 = 0.294 | 708.1 | 0.5721
288.15 K, x2 = 0.399 | 712.9 | 0.615
288.15 K, x2 = 0.496 | 721 | 0.6805
288.15 K, x2 = 0.602 | 727.5 | 0.7453
288.15 K, x2 = 0.691 | 739.4 | 0.8411
288.15 K, x2 = 0.807 | 751.2 | 0.958
288.15 K, x2 = 0.911 | 768.4 | 1.095
290.65 K, x2 = 0.095 | 696.8 | 0.5072
290.65 K, x2 = 0.192 | 700.1 | 0.5195
290.65 K, x2 = 0.294 | 705.9 | 0.5541
290.65 K, x2 = 0.399 | 710.8 | 0.5946
290.65 K, x2 = 0.496 | 718.9 | 0.6543
290.65 K, x2 = 0.602 | 725.3 | 0.7168
290.65 K, x2 = 0.691 | 737.2 | 0.8071
290.65 K, x2 = 0.807 | 749.1 | 0.9164
290.65 K, x2 = 0.911 | 766.3 | 1.046
293.15 K, x2 = 0 | 705.6 | 0.5374
293.15 K, x2 = 0.095 | 694.7 | 0.4931
293.15 K, x2 = 0.192 | 698 | 0.5049
293.15 K, x2 = 0.294 | 703.8 | 0.5366
293.15 K, x2 = 0.399 | 708.6 | 0.5752
293.15 K, x2 = 0.496 | 716.8 | 0.6298
293.15 K, x2 = 0.602 | 723.2 | 0.6899
293.15 K, x2 = 0.691 | 735.1 | 0.7742
293.15 K, x2 = 0.807 | 746.9 | 0.8781
293.15 K, x2 = 0.911 | 764.1 | 0.9997
295.65 K, x2 = 0.095 | 692.6 | 0.4796
295.65 K, x2 = 0.192 | 695.9 | 0.4908
295.65 K, x2 = 0.294 | 701.7 | 0.5197
295.65 K, x2 = 0.399 | 706.5 | 0.5566
295.65 K, x2 = 0.496 | 714.7 | 0.6039
295.65 K, x2 = 0.602 | 721.1 | 0.6643
295.65 K, x2 = 0.691 | 732.9 | 0.7428
295.65 K, x2 = 0.807 | 744.7 | 0.8415
295.65 K, x2 = 0.911 | 762 | 0.956
298.15 K, x2 = 0 | 701.6 | 0.5087
298.15 K, x2 = 0.095 | 690.5 | 0.4675
298.15 K, x2 = 0.192 | 693.8 | 0.477
298.15 K, x2 = 0.294 | 699.6 | 0.5022
298.15 K, x2 = 0.399 | 704.3 | 0.5386
298.15 K, x2 = 0.496 | 712.6 | 0.5828
298.15 K, x2 = 0.602 | 718.9 | 0.6396
298.15 K, x2 = 0.691 | 730.8 | 0.7137
298.15 K, x2 = 0.807 | 742.6 | 0.8061
298.15 K, x2 = 0.911 | 759.8 | 0.925
